From patent US4201843A, “Process for manufacturing tylosin derivatives” (Sanraku Ocean Co., Ltd., priority 1975, dated 1980)
Values after ≈ are worked out from the molar mass of the structure shown.

Key:
[1] = electrometric determination in dimethyl formamide-H2O=2:1 by volume; Japanese Patent (Kokoku) Showa No. 36-22649; cited from earlier work
[2] = tested on: Bacillus cereus ATCC 9634; assay: minimum growth-inhibitory concentration; type: cell-based; conditions: ATCC9634
Protocol: (§1) The antimicrobial spectra of new tylosin derivatives of this invention are shown in Table 2 by listing the minimum growth inhibitory concentrations (MIC, mcg/ml). […] The toxicity of these compounds was tested in animals by intravenous administration, and the LD50 values in mice are more than 400 mg/kg with all compounds. In therapeutical experiments with mice manually infected by Staphilococcus aureus SMITH, the ED50 values were less than 50 mg/kg (p.o.) with all said tylosin derivatives.

[3] = tested on: Bacillus megaterium NRRL B-938; assay: minimum growth-inhibitory concentration; type: cell-based; conditions: Priestia megaterium, NRRLB938
Protocol: as §1

[4] = tested on: Bacillus subtilis ATCC 6633; assay: minimum growth-inhibitory concentration; type: cell-based; conditions: ATCC6633
Protocol: as §1

[5] = tested on: Candida albicans IAM 4905; assay: minimum growth-inhibitory concentration; type: cell-based; conditions: IAM4905
Protocol: as §1

[6] = tested on: Candida tropicalis IAM 4924; assay: minimum growth-inhibitory concentration; type: cell-based; conditions: IAM4924
Protocol: as §1

[7] = tested on: Corynebacterium bovis 1810; assay: minimum growth-inhibitory concentration; type: cell-based
Protocol: as §1

[8] = tested on: Escherichia coli (National Institute of Health); assay: minimum growth-inhibitory concentration; type: cell-based
Protocol: as §1

Micrococcus flavus I = assay: minimum growth-inhibitory concentration; type: cell-based
Protocol: as §1

[9] = tested on: Mycobacterium smegmatis ATCC 607; assay: minimum growth-inhibitory concentration; type: cell-based; conditions: Mycolicibacterium smegmatis, ATCC607
Protocol: as §1

[10] = tested on: Proteus morganii (The Institute for Infectious Diseases); assay: minimum growth-inhibitory concentration; type: cell-based; conditions: Morganella morganii
Protocol: as §1

[11] = tested on: Pseudomonas fluorescens NIHJB 254; assay: minimum growth-inhibitory concentration; type: cell-based; conditions: NIHJB254
Protocol: as §1

Sarcina lutea ATCC 9341 = assay: minimum growth-inhibitory concentration; type: cell-based; conditions: Micrococcus luteus, ATCC9341
Protocol: as §1

[12] = tested on: Staphylococcus aureus FAD209P; assay: minimum growth-inhibitory concentration; type: cell-based; conditions: read-out: minimum growth-inhibitory concentration (MIC)
Protocol: as §1

[13] = tested on: Staphylococcus aureus SMITH; assay: minimum growth-inhibitory concentration; type: cell-based
Protocol: as §1

[14] = tested on: Staphylococcus aureus MS 8710; assay: minimum growth-inhibitory concentration; type: cell-based; conditions: MS8710; Staphylococcus aureus MS 8710, drug resistant strain
Protocol: as §1
(§2) The strains marked * in Table 2 are the drug resistant strains isolated from patients, namely, Staphilococcus aureus MS-9610 which is resistant to penicillin, tetracycline, erythromycin, leucomycin, spiramycin, josamycin and tylosin, Staphilococcus aureus MS-8710 which is resistant to penicillin, tetracycline, erythromycin, leucomycin and tylosin, and Streptococcus pyogenes MH 771 which is resistant to erythromycin, oleandomycin, leucomycin and tylosin.

[15] = tested on: Staphylococcus aureus MS 9610; assay: minimum growth-inhibitory concentration; type: cell-based; conditions: MS9610; Staphylococcus aureus MS 9610, drug resistant strain
Protocol: as §1, §2

[16] = tested on: Streptococcus pyogenes MH 771; assay: minimum growth-inhibitory concentration; type: cell-based; conditions: MH771, read-out: minimum growth-inhibitory concentration (MIC)
Protocol: as §1
(broth-dilution method)
as §2

[17] = design: species or system mice; conditions: mouse, in vivo, po, 100 mg/kg
Protocol: Another phase of advantages of the said tylosin derivatives is their high blood levels in animals. When each of these compounds is orally administered to mice in a dose of 100 mg/kg, their concentrations in blood were measured to be 5-20 mcg/ml, a substantially high value compared to that of tylosin (<1 mcg/ml). […] Their concentrations in blood one hour after administration reached up to 15-20 mcg/ml.

| Molecule | pk value [1] | MIC [2] [µg/mL] | MIC [3] [µg/mL] | MIC [4] [µg/mL] | MIC [5] [µg/mL] | MIC [6] [µg/mL] | MIC [7] [µg/mL] | MIC [8] [µg/mL] | MIC (Micrococcus flavus I) [µg/mL] | MIC [9] [µg/mL] | MIC [10] [µg/mL] | MIC [11] [µg/mL] | MIC (Sarcina lutea ATCC 9341) [µg/mL] | MIC [12] [µg/mL] | MIC [13] [µg/mL] | MIC [14] [µg/mL] | MIC [15] [µg/mL] | MIC [16] [µg/mL] | concentration in blood [17] [ng/mL] |
| --- | --- | --- | --- | --- | --- | --- | --- | --- | --- | --- | --- | --- | --- | --- | --- | --- | --- | --- | --- |
| tylosin acetyl ester | about 5.1 | – | – | – | – | – | – | – | – | – | – | – | – | – | – | – | – | – | – |
| CC[C@H]1OC(=O)C[C@@H](O)[C@H](C)[C@@H](O[C@@H]2O[C@H](C)[C@@H](O[C@H]3C[C@@](C)(O)[C@@H](O)[C@H](C)O3)[C@H](N(C)C)[C@H]2O)[C@@H](CC=O)C[C@@H](C)C(=O)/C=C/C(C)=C/[C@@H]1CO[C@@H]1O[C@H](C)[C@@H](O)[C@@H](OC)[C@H]1OC [tylosin] | – | 0.49 (≈ 0.535 µM) | 0.25 (≈ 0.273 µM) | 0.49 (≈ 0.535 µM) | > 250 | > 250 | 0.5 (≈ 0.546 µM) | 250 (≈ 273 µM) | 0.12 (≈ 0.131 µM) | 7.81 (≈ 8.53 µM) | > 250 | > 250 | 0.12 (≈ 0.131 µM) | 0.49 (≈ 0.535 µM) | 0.25 (≈ 0.273 µM) | > 250 | > 250 | 250 (≈ 273 µM) | < 1000 |
